According to patent US11638712B2, “Bis(acetamidophenyl) guanidinophenylethylphosphonates for use in the prevention and/or treatment of PAR-related diseases” (Universiteit Antwerpen, priority 2016, dated 2023):

Key:
[1] = target: uPA (Homo sapiens, UniProt P00749); test: in vitro serine protease inhibition profile: uPA; assay type: biochemical
[2] = target: tryptase (Homo sapiens, UniProt Q15661); test: in vitro serine protease inhibition profile: tryptase; assay type: biochemical
[3] = target: KLK1 (Homo sapiens, UniProt P06870); test: in vitro serine protease inhibition profile: KLK1; assay type: biochemical
[4] = target: T1, plasmin (Homo sapiens, UniProt P00747); test: in vitro serine protease inhibition profile: plasmin; assay type: biochemical
T1 construct: panel of serine proteases: uPA, tPA, thrombin, plasmin, FXIIa

[5] = tested on: post-colitis rats; test: post-colitis rat model for visceral pain, visceromotor response (VMR) to colorectal distension; settings: for effect on VMRs (visceral pain) / effective dose in visceral pain model: post-colitis rats; for effective dose in visceral pain model: i.p.
Method: Male Sprague-Dawley rats (200-225 g; Charles River, Italy) were used in all experiments. Rats were housed at a constant room temperature (22±2° C.) and humidity (60%). The animals had unlimited access to water and food and were kept on a 12 h:12 h day-night cycle. They were allowed to acclimatize for at least 1 week before the start of the experiments.
In this set-up, a mild colitis was induced in the post-colitis group on day 0, using a TNBS-enema. The control group received an intrarectal administration with 0.9% NaCl. The presence of colitis was verified by a colonoscopy on day 3. From day 10 onwards, a colonoscopy was performed every 4 days to follow-up the healing of the colonic mucosa. When the colonic mucosa was completely healed, further experiments were performed 3 days later. […] After the VMR measurement, the animals were sacrificed.
TNBS-colitis was induced at day 0 using a TNBS-enema (4 mg TNBS, 50% ethanol). […] Control animals received 0.25 ml 0.9% NaCl intrarectally. The animals were kept in a tail-up position during 1 min and were then allowed to recover in a Trendelenburg position.
Electromyographic (EMG) electrodes were implanted into the external abdominal muscle and 3 days later, the VMR experiment was performed in conscious rats. A lubricated balloon (length 5 cm) was introduced into the colorectum of the animal and connected to a barostat (Distender Series II Barostat, G&J Electronics, Canada). The EMG electrodes were attached to a data-acquisition system and a phasic distension protocol (10-20-30-40-60 mmHg, 20 s, 4 min interval) was sent through the barostat. […] The VMR was quantified using the area under the curve (AUC) of the EMG signal during the distension (20 s) corrected for the EMG signal before the distension (20 s).
22.0. The results of the VMR experiments analyzed using a Generalized Estimating Equations (GEE) test with Least Significant Difference (LSD) post-hoc test. A p-value<0.05 was considered as being statistically significant. The graphs were made with GraphPad Prism 6.0.
Visceral sensitivity was assessed using the visceromotor responses (VMRs) to a colorectal distension, shown in the graphs below as area under the curve (AUC; y-axis; μV.20 s-1) for each distension pressure (x-axis; mmHg). Serine proteases seem to play an important role in the pathogenesis of visceral pain.

[6] = target: T2, cathepsinG (Homo sapiens, UniProt P08311); test: in vitro serine protease inhibition profile: cathepsinG; assay type: biochemical
T2 sequence (P08311 21-244): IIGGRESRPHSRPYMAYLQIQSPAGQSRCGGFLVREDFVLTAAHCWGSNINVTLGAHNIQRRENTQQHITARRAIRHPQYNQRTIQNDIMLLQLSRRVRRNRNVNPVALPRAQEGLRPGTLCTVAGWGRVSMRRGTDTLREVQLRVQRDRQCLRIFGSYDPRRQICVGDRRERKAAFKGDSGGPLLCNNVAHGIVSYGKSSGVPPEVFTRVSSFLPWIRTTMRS

[7] = target: T3, HNE (Homo sapiens, UniProt P08246); test: in vitro serine protease inhibition profile: HNE; assay type: biochemical
T3 sequence (P08246 30-267): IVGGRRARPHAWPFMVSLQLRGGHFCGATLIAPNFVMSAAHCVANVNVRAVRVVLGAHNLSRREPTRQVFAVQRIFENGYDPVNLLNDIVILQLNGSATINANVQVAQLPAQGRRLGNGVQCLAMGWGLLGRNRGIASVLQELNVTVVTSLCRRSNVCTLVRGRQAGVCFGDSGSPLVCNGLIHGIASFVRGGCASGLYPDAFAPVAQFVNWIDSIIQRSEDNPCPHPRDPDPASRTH

[8] = target: T4, KLK8 (Homo sapiens, UniProt O60259); test: in vitro serine protease inhibition profile: KLK8; assay type: biochemical
T4 sequence (O60259 33-260): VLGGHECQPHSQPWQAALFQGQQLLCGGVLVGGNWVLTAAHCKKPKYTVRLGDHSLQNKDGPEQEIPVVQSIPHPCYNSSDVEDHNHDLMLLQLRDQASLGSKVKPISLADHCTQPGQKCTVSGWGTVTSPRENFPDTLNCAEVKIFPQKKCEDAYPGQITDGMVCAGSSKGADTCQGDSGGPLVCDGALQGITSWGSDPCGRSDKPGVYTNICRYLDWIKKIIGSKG

[9] = target: KLK2 (Homo sapiens, UniProt P20151); test: in vitro serine protease inhibition profile: KLK2; assay type: biochemical
[10] = target: T5, thrombin (Homo sapiens, UniProt P00734); test: in vitro serine protease inhibition profile: thrombin; assay type: biochemical
T5 construct: panel of serine proteases: uPA, tPA, thrombin, plasmin, FXIIa

[11] = target: tPA (Homo sapiens, UniProt P00750); test: in vitro serine protease inhibition profile: tPA; assay type: biochemical
[12] = 1 mg/kg i.p., single administration

T1 sequence (P00747 581-810 limits assumed, species assumed): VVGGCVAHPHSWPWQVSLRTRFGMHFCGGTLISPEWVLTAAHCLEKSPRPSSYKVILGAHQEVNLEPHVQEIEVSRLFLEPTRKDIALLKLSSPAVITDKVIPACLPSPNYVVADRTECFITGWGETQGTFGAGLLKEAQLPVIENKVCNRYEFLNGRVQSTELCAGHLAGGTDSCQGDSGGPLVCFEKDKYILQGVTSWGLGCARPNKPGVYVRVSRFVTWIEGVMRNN
T1 sequence (P00747 97-580 partner limits assumed, species assumed): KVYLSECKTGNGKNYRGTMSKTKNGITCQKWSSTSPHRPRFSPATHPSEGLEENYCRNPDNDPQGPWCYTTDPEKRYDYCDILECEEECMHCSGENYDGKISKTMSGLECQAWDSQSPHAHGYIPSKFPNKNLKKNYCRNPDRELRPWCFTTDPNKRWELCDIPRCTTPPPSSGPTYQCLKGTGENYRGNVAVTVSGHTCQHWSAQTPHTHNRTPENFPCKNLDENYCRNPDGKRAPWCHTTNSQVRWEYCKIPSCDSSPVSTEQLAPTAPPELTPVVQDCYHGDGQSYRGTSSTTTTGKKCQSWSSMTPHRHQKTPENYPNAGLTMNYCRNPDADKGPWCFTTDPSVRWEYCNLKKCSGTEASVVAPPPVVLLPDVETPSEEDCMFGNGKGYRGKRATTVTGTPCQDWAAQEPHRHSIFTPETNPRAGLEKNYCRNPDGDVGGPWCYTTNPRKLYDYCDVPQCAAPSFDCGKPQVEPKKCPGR
Sequence of KLK1 (P06870 25-262, species assumed): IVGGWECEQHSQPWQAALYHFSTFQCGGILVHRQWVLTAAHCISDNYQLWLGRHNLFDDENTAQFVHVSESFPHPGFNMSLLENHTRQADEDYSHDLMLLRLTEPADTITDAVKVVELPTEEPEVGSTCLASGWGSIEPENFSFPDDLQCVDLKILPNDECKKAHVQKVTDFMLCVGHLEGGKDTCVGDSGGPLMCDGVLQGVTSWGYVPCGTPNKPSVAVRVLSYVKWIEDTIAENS
Sequence of tPA (P00750 36-562, species assumed): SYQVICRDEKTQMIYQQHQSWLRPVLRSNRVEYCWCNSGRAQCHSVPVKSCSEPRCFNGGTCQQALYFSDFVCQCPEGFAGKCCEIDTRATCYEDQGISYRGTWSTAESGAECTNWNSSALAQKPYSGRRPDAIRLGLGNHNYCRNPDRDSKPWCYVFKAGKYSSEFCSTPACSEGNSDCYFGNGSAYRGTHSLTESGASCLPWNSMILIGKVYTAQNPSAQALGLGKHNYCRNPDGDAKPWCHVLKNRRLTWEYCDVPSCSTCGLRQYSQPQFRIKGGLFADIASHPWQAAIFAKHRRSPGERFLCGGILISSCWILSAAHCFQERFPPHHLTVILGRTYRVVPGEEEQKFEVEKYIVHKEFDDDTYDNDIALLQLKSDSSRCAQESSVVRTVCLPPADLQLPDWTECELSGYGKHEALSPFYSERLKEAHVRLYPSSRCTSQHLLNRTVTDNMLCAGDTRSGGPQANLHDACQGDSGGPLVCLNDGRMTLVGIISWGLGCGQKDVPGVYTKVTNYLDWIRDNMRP
Sequence of tryptase (Q15661 31-275): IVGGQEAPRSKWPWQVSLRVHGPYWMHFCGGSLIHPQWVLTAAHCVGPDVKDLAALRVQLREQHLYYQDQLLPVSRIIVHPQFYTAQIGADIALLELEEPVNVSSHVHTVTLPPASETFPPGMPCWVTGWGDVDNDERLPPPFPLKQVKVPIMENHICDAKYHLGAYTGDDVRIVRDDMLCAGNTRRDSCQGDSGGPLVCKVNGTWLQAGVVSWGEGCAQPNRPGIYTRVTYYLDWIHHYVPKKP
Sequence of KLK2 (P20151 25-261, species assumed): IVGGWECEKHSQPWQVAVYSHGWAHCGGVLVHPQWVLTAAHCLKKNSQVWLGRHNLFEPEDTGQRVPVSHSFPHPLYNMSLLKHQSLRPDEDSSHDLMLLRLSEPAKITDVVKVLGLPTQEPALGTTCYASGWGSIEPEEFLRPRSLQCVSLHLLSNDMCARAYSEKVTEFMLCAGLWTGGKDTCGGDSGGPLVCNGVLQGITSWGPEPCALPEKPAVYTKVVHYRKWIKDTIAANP

| SMILES | IC50 [1] | IC50 [2] | IC50 [3] | IC50 [4] | effect on VMRs (visceral pain) [5, 12] | effect on VMRs (visceral pain) ([5]; 2.5 mg/kg i.p.) | effective dose in visceral pain model [5] | side effect observed ([5]; rats, 5 mg/kg) | IC50 [6] | IC50 [7] | IC50 [8] | IC50 [9] | IC50 [10] | IC50 [11] | effect on visceral sensitivity ([5]; control rats, 1 mg/kg i.p.) | effect on VMRs (visceral pain) ([5]; 0.01 mg/kg i.p., single administration 30 min before VMR) | effect on VMRs (visceral pain) ([5]; 0.1 mg/kg i.p., single administration) |
| --- | --- | --- | --- | --- | --- | --- | --- | --- | --- | --- | --- | --- | --- | --- | --- | --- | --- |
| COC(=O)NC(Cc1ccc(NC(=N)N)cc1)P(=O)(Oc1ccccc1)Oc1ccccc1 (centres unmarked) [Compound 1] | 4 nM | 93 nM | > 2500 nM | > 2500 nM | no clear reduction of the VMRs was seen | visceral pain had completely disappeared | at least 2.5 mg/kg | sedation was observed | 329 nM | > 2500 nM | 28 nM | > 2500 nM | > 2500 nM | > 2500 nM | – | – | – |
| CC(=O)Nc1ccc(OP(=O)(Oc2ccc(NC(C)=O)cc2)C(Cc2ccc(NC(=N)N)cc2)NC(=O)OCc2ccccc2)cc1 (centres unmarked) [Compound 4] | 2 nM | 5 nM | > 2500 nM | > 2500 nM | visceral pain had completely disappeared | – | 0.1 mg/kg | – | 120 nM | > 2500 nM | 2 nM | 115 nM | 257 nM | > 2500 nM | no significant effect on visceral sensitivity | no significant effect | significantly lowered VMRs |
